What all share (type): functional, cell-based
Series [1] has as its target T1, Retinoic acid receptor RXR-alpha (Homo sapiens) (UniProt P19793).
T1 sequence (whole entry): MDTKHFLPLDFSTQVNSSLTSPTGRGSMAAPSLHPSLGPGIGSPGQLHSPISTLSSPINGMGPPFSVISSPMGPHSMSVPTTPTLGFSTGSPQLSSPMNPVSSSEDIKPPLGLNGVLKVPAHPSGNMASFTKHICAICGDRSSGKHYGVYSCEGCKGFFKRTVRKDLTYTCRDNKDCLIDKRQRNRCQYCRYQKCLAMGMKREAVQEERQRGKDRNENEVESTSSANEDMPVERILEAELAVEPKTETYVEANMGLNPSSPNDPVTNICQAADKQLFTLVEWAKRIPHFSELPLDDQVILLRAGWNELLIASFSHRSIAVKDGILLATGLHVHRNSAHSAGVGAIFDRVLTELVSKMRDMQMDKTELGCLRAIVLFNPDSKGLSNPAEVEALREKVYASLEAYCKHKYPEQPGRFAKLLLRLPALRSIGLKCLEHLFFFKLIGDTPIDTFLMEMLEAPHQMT
In words: Agonist activity at RXRalpha-LBD expressed in HEK293 cells assessed as Gal4-DBD interaction by cellular mammalian one hybrid assay relative to retinoic acid.

Series [2] addresses T2, Oxysterols receptor LXR-beta (Homo sapiens, UniProt P55055).
T2 sequence (P55055 whole entry): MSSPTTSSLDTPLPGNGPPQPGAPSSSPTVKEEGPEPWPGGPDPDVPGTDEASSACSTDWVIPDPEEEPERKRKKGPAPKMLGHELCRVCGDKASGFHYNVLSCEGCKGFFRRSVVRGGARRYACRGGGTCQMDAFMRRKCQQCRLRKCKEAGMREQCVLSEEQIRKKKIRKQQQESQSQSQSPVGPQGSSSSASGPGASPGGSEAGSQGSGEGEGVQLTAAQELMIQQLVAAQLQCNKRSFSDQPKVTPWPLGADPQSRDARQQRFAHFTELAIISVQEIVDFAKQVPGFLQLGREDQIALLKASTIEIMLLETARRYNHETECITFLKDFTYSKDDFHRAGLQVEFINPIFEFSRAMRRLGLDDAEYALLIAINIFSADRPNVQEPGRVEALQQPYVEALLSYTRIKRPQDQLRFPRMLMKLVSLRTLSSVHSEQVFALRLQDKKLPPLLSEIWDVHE
Briefly: Agonist activity at LXRbeta-LBD expressed in HEK293 cells assessed as Gal4-DBD interaction by cellular mammalian one hybrid assay.

In series [3] the target is T3, Androgen receptor (Homo sapiens) (UniProt P10275).
T3 sequence (whole entry): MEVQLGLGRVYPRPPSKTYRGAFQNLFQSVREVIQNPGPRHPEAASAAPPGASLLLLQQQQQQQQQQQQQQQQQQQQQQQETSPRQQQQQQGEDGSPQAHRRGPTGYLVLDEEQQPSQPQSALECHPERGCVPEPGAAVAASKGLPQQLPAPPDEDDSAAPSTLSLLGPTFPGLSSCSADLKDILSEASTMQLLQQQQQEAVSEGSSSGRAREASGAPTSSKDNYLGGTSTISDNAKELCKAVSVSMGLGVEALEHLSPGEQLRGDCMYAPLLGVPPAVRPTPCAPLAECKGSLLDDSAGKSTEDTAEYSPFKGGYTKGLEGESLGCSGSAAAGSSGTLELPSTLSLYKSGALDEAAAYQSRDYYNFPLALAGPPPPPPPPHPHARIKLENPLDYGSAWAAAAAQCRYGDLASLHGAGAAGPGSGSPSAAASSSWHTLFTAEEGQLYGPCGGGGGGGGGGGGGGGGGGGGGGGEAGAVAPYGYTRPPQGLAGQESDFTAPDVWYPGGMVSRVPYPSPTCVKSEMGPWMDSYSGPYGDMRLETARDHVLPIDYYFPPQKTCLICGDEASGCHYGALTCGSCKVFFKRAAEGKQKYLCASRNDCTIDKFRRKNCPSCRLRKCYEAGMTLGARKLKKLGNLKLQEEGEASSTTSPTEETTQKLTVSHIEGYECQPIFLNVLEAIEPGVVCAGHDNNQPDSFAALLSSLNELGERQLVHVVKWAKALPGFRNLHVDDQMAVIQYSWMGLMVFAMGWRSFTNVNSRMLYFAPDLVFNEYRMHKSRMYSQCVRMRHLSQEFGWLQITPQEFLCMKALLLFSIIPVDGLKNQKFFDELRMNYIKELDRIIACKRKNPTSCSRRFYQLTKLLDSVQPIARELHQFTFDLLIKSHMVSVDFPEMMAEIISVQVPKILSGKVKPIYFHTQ
Briefly: Agonist activity at androgen receptor-LBD expressed in HEK293 cells assessed as Gal4-DBD interaction by cellular mammalian one hybrid assay relative to androgen.

Series [4] deals with T4, PXR (nuclear receptor subfamily 1 group I member 2) (Homo sapiens, UniProt O75469).
T4 sequence (O75469 whole entry): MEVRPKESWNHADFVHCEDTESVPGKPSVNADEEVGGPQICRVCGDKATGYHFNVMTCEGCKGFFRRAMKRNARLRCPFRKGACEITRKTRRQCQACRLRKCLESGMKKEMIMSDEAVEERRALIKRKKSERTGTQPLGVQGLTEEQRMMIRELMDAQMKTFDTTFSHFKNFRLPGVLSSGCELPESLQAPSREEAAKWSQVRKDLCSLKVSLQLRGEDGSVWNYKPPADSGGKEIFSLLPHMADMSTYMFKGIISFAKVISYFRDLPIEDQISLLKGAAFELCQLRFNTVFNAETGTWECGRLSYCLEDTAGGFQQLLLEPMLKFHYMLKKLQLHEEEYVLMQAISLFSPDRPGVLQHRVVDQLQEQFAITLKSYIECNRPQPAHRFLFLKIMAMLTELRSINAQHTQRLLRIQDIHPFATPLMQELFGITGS
In words: Agonist activity at PXR-LBD expressed in HEK293 cells assessed as Gal4-DBD interaction by cellular mammalian one hybrid assay relative to SR-12813. Particulars: HEK293 cells expressing PXR-LBD, read-out: Efficacy.

The structures appear in SMILES notation.

As to `CN(Cc1ccc(C(=O)O)cc1)c1ccc(OCc2c(-c3c(Cl)cccc3Cl)noc2C2CC2)nc1C(F)(F)F`, the Efficacy in series [1] and in series [3] was 0% throughout. Also, the EC50 in series [2] was over 10 µM. Besides, in series [4], the Emax worked out at 67%.

Take `CN(Cc1cccc(C(=O)O)c1)c1ccc(OCc2c(-c3c(Cl)cccc3Cl)noc2C2CC2)nc1C(F)(F)F`: the Efficacy in series [1] and in series [3] was 0% throughout. Further, the EC50 in series [2] was over 10 µM. Moreover, the Emax in series [4] is 62%.

Turning to `CC(C)c1onc(-c2c(Cl)cccc2Cl)c1COc1ccc(N(C)Cc2ccc(C(=O)O)cc2)c(C(F)(F)F)n1`, the Efficacy in series [1] and in series [3] was 0% in each case. The EC50 in series [2] was over 10 µM. Further, in series [4], the Emax is 60%.

In general, EC50 refers to the concentration that produces a half-maximal response.

The values are drawn from ChEMBL document CHEMBL1208782, “Synthesis and pharmacological validation of a novel series of non-steroidal FXR agonists” (Bioorg Med Chem Lett, 2010).
